Data as given in patent EP1951725B1, “N-SULFAMOYL-N -BENZOPYRANPIPERIDINES AS INHBITORS OF CARBONIC ANHYDRASES” (Abbott Products GmbH, priority 2005, dated 2007).

Legend:
[1] = Acute in vivo food intake test in mice; conditions: 24h food intake, male or female C57BI/6 mice, high caloric diet, oral gavage 100 mg/kg/day in two half doses
Method: 2. Acute in vivo food intake test in mice
The studies were carried out in male or female C57BI/6 mice (n=8-12 per group). The mice were kept on an inverted 12/12h light/dark cycle (lights on 22:00). They were allowed food (high caloric diet) and water ad libitum. Food intake and water consumption was measured daily. The test compound of general Formula I was suspended in 1% methylcellulose in water and 2% (v/v) of Poloxamer 188 (Lutrol F68®) and administered by oral gavage at a dose of 100 mg/kg/day. One half of the dose was administered at 7.00-9.00 h; the remaining half of the dose was administered between 15.00-15.30 h.
In the test model described above, the test substances caused a decrease of the animals' 24h food intake to the percentages of food intake when compared to control as given in Table 2 below. Table 2: Influence of test substances on food intake

[2] = molecular target: T1, human carbonic anhydrase isoenzyme II (hCA II) (Homo sapiens, UniProt P00918); test: biochemical; assay type: binding; conditions: hCA II from erythrocytes 10^-7 M/L, dansylamide 2.25x10^-6, pH 7.4, 60 min preincubation, read at 60 min at 37°C, single measurements
T1 construct: human carbonic anhydrase isoenzyme II from erythrocytes (Sigma-Aldrich); purchased Sigma-Aldrich; host or cells: human erythrocytes (natural source)
Method: 1. In vitro inhibition of human carbonic anhydrase isoenzyme II (hCA II)
The test compounds of general Formula I in 96 well microplates were diluted with aqua bidest by using an automatic pipettor (CyBiWell®). From the different dilution plates, aliquots of 20 µl were transferred to the 96 well black assay plates with a pipetting station (Tecan Genesis®). In a second step, 148 µl of potassium phosphate buffer (20 mM, pH 7.4) was added, and as a third step, 20 µl of enzyme solution (1 µM human carbonic anhydrase isoenzyme II from erythrocytes (Sigma-Aldrich), dissolved in potassium phosphate buffer) incubated for 60 min at room temperature and the fluorescence signal (Tecan Ultra® fluorescence reader; excitation wavelength: 280 nm; emission wavelength: 465 nm) read at the end of the preincubation period (FLU-1). After the preincubation time, 20 µl of aqueous dansylamide solution (1 mM dansylamide (Sigma-Aldrich), dissolved in hydrochloric acid) were added and the fluorescence signal read every 10 min for a period of 60 min at 37°C. For calculation, the fluorescence data of the time point 60 min (FLU-2) were used. The total volume of assay mixture amounted to 208 µl. […] Data were expressed as % inhibition after calculation by the formula: % inhibition = 100((1-(FLU-2_cpd-FLU-2_blank-FLU-1_cpd+FLU-1_blank)/(FLU-2_control-FLU-2_blank-FLU-1_control-FLU-1_blank)) [formula] […]

IC50 [2]	Structure (SMILES)	food intake [1]
	NS(=O)(=O)N1CCC2(CC1)CC(=O)c1ccccc1O2 [Example 1]	83 % of control
6.6 µM	NS(=O)(=O)N1CCC2(CC1)CC(=O)c1cc(Br)ccc1O2 [Example 2]	
